Assay results from US10092657B2, “Opsonized β-glucan preparations and methods” (Biothera, Inc., priority 2011, dated 2018).

What was measured:
[1] = tested on: human neutrophils; assay: Binding studies on the role of complement proteins in serum, neutrophils; format: cell-based; details: for Effect of the agent added to serum or media on binding of PGG β-glucan: compstatin/control peptide 20 or 100 μM, methylamine 0.67%, 166-32 20 μg/mL, HSA 10%
Procedure: (§1) Heat-inactivated (HI) serum was prepared by incubating serum in a 56° C. water bath for 30 minutes. […] Treatment of serum with methylamine (MA) was done by incubating serum with 0.67% of methylamine for 2.5 hours at 37° C., followed by three washes with DPBS using Amicon centrifugal filter unit with a 3K MW cut-off (Millipore, Billerica, Mass.). DPBS-treated serum was prepared in the same manner and used as control serum for MA-treated serum. For blocking of factor D in the serum, 166-32 at concentration 20 μg/mL was incubated with serum on ice for 30 minutes, and then used for binding studies. For binding experiments in the presence of EGTA or MgEGTA, serum was incubated with 10 mM EGTA with or without 10 mM MgCl2 for 10 minutes at room temperature. The untreated and EGTA/MgEGTA-treated serum was then used to pre-treat PGG and perform binding studies as described earlier.

[2] = tested on: human monocytes; assay: Binding studies on the role of complement proteins in serum, monocytes; format: cell-based; details: for Effect of the agent added to serum or media on binding of PGG β-glucan: compstatin/control peptide 20 or 100 μM, methylamine 0.67%, 166-32 20 μg/mL, HSA 10%
Procedure: as §1

[3] = tested on: human neutrophils; assay: Binding of DTAF-labeled PGG β-glucan to human neutrophils, with excess unlabeled competitor; format: cell-based; details: 10 mg/mL unlabeled competitor; 25 μg/mL DTAF-labeled β-glucan
Procedure: In early optimization experiments, neutrophils, monocytes, and T cells were identified by staining with fluorescently labeled anti-CD 15, anti-CD 14, or anti-CD3 Abs, respectively. Events were collected on a LSRII flow cytometer (BD Biosciences, San Jose, Calif.) and analysis was performed using FLOWJO (Tree Star, Ashland, Oreg.). For assessing binding of DTAF-labeled PGG β-glucan to human neutrophils, 25 βg/mL, 100 μg/mL, or 400 μg/mL of labeled β-glucan was added to neutrophils resuspended in RPMI/10% serum, incubated in a 37° C., 5% CO2 humidified incubator for one hour, washed twice with cold FACS buffer, and fixed with 1% paraformaldehyde. Surface binding of DTAF-conjugated β-glucan was subsequently assessed by flow cytometric analysis.

[4] = biological target: T1, iC3b (Homo sapiens, UniProt P01024); assay: ELISA for iC3b deposition on immobilized PGG β-glucan; format: binding; details: for Effect of serum treatment on iC3b deposition on immobilized β-glucan: methylamine 0.67%, 10 mM EGTA, 10 mM EGTA+10 mM MgCl2
T1 construct: from tissue
Procedure: PGG β-glucan or dextran was immobilized on wells of a 96-well polystyrene plate (COSTAR, Coming, Inc., Lowell, Mass.) by drying the glucans at 50° C. followed by UV cross-linking. The glucan-coated plate was first blocked with 1% BSA before incubation with untreated serum or serum undergone various treatments as described in binding studies, diluted 1:2 with wash buffer (PBS/0.05% Tween-20) for 30 minutes at 37° C. After washing the serum from the plate, the bound iC3b was probed using the anti-iC3b monoclonal antibody followed by biotin-labeled goat anti-mouse IgG Ab. The amount of immobilized biotin-labeled antibody was determined using streptavidin peroxidase and TMB substrate solution (KPL, Gaithersburg, Md.). OD450 of each well was measured with the spectrophotometer SpectraMAX 250 (Molecular Devices, Sunnyvale, Calif.). Fold change was calculated as OD450 of wells containing immobilized β-glucan divided by OD450 of wells containing no β-glucan, both incubated in the presence of treated or untreated serum.

[5] = biological target: T1, iC3b; assay: Immunoprecipitation of PGG β-glucan with BfD IV and detection of pulled-down iC3b; format: binding; details: glucan incubated with regular serum
Procedure: PGG β-glucan or dextran at concentration 60-80 mg/mL was incubated with regular or HI serum at 1:10 volume ratio for 30 minutes in a 37° C. water bath. BfD IV Ab was added to the serum/β-glucan mixture and incubated at room temperature for additional 30 minutes. Magnetic beads conjugated with rat anti-mouse IgM (DYNABEADS, Invitrogen, Camarillo, Calif.) were washed three times with DPBS and incubated with serum-PGG β-glucan-BfD IV mixture for another 30 minutes at room temperature. The beads were separated magnetically and iC3b pulled-down along with immunoprecipitated PGG was probed using FITC-conjugated complement C3 Ab by flow cytometer.

[6] = tested on: human neutrophils; assay: Binding of PGG β-glucan after serum pre-treatment, neutrophils; format: cell-based; details: 10 mM EGTA with or without 10 mM MgCl2; vs untreated serum
Procedure: (§2) PGG β-glucan at concentration 60-80 mg/mL was incubated with human serum at 1:10 volume ratio for 30 minutes in a 37° C. water bath. The serum-pretreated PGG β-glucan was added to neutrophils at 200 μg/mL or to PBMC at 100 μg/mL resuspended in RPM1 containing either 10% regular autologous serum or 10% HI serum at indicated time and temperature of incubation. Binding was then determined as described previously.
(§3) To determine the role of complement proteins in binding, experiments were performed as described above except for using serum containing 10% HI, compstatin-treated or methylamine (MA)-treated, EGTA- or EGTA+MgCl2 (MgEGTA)-treated, or factor D-blocked serum. Heat-inactivated (HI) serum was prepared by incubating serum in a 56° C. water bath for 30 minutes. […] Treatment of serum with methylamine (MA) was done by incubating serum with 0.67% of methylamine for 2.5 hours at 37° C., followed by three washes with DPBS using Amicon centrifugal filter unit with a 3K MW cut-off (Millipore, Billerica, Mass.). DPBS-treated serum was prepared in the same manner and used as control serum for MA-treated serum. For blocking of factor D in the serum, 166-32 at concentration 20 μg/mL was incubated with serum on ice for 30 minutes, and then used for binding studies. […]

[7] = tested on: human monocytes; assay: Binding of PGG β-glucan after serum pre-treatment, monocytes; format: cell-based; details: 10 mM EGTA with or without 10 mM MgCl2; vs untreated serum
Procedure: as §2, §3

[8] = tested on: sC5b-9 complex; assay: Measurement of fluid-phase SC5b-9 complex formation in the serum; format: biochemical, human; details: serum treated with 10 mM EGTA with or without 10 mM MgCl2
Procedure: The MicroVue SC5b-9 EIA kit was used to measure activation of the classical and alternative pathways of complement according to the vendor's instruction (Quidel Corp., San Diego, Calif.). Briefly, the serum, untreated or treated was mixed with PBS, Ab-sensitized sheep RBC (SRBC), or 20 units of CVF and added to plate wells pre-coated with anti-sC5b-9 monoclonal antibody. The plate was incubated at 37° C. for 60 minutes, followed by five washes with the provided wash buffer. The plate was then incubated with the provided SC5b-9 Plus Conjugate, which contained horseradish peroxidase-conjugated Ab specific for sC5b-9 at room temperature for 30 minutes. The plate was washed five times, incubated with the substrate for 15 minutes at room temperature to initiate the enzymatic reaction and subsequently quenched with the stop solution. OD450 Was measured using the spectrophotometer SpectraMAX 250. The concentration of fluid phase sC5b-9 present in the samples was determined from the standard curve generated with the provided sC5b-9 standards.

[9] = 100 μM compstatin-treated serum vs control peptide, C3 blocking, three donors

T1 sequence (P01024 749-1303 limits assumed): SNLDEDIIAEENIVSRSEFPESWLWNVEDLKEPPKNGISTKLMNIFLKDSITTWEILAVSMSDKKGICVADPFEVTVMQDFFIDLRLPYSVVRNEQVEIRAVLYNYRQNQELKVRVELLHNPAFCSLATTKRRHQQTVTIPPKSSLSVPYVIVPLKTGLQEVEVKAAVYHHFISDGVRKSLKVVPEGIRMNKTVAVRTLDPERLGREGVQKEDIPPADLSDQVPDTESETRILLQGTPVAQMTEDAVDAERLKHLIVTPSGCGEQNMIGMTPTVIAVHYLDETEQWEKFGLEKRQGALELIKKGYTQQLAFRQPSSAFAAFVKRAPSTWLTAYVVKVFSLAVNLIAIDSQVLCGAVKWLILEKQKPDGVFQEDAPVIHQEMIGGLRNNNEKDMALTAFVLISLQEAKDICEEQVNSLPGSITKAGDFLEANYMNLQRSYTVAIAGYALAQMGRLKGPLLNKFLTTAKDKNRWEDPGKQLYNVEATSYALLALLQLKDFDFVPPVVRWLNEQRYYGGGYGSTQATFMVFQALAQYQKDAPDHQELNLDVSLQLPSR
T1 sequence (P01024 23-667 partner limits assumed): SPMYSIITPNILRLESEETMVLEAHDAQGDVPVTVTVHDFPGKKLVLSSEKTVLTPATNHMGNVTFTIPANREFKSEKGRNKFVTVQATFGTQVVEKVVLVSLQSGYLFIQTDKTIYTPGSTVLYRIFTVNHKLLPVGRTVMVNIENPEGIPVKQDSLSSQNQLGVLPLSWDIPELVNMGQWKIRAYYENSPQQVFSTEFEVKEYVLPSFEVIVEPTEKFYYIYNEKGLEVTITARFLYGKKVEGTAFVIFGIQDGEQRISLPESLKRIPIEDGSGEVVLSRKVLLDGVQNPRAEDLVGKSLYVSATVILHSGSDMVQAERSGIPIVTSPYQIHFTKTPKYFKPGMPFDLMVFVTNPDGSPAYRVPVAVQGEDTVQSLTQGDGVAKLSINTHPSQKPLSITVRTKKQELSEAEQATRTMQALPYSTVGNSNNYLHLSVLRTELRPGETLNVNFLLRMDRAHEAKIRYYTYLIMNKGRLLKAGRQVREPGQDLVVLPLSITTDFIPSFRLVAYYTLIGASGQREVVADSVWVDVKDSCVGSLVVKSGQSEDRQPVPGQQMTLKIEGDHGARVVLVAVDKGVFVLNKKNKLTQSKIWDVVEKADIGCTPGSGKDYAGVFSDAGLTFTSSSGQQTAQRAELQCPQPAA
T1 sequence (P01024 1321-1663 partner limits assumed): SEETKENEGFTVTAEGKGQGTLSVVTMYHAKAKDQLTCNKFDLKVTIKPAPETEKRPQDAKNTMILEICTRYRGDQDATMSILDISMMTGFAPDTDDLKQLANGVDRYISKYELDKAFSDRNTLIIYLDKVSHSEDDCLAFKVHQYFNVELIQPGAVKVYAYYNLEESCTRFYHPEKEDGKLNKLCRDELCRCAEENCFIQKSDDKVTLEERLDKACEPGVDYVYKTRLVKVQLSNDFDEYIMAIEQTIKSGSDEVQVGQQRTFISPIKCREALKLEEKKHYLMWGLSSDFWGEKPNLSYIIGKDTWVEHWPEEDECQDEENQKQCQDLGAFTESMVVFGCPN

For `CC[C@H](C)[C@H](N)C(=O)N[C@H]1CSSC[C@@H](C(=O)N[C@H](C(N)=O)[C@@H](C)O)NC(=O)[C@H](CCCN=C(N)N)NC(=O)[C@H](Cc2cnc[nH]2)NC(=O)[C@H](Cc2cnc[nH]2)NC(=O)CNC(=O)[C@H](Cc2c[nH]c3ccccc23)NC(=O)[C@H](CC(=O)O)NC(=O)[C@H](CCC(N)=O)NC(=O)[C@H](C(C)C)NC(=O)[C@H](C(C)C)NC1=O` [compstatin], the “Average percentage of inhibition of β-glucan binding” value [1, 9] was 95%, the “Range of percentage of inhibition of β-glucan binding” value [1, 9] was 90-98% and the “Effect of the agent added to serum or media on binding of PGG β-glucan” value (from here on “Effect of the agent added”) [1] was “inhibited binding of β-glucan in a concentration-dependent manner”. For the same compound, the “Average percentage of inhibition of β-glucan binding” value [2, 9] was 80%, the “Range of percentage of inhibition of β-glucan binding” value [2, 9] was 62-92% and the “Effect of the agent added” value [2] was “inhibited binding of β-glucan in a concentration-dependent manner”.
With dextran [reference compound] the “Blocking of DTAF-labeled β-glucan staining by excess unlabeled glucan” value [3] was “did not block binding”, the “Fold increase of iC3b detected on immobilized glucan compared to background” value ([4]; 300 μg/mL immobilized, regular serum 30 minutes at 37° C.) was “significantly less iC3b detected” and the “iC3b pulled down with BfD IV immunoprecipitate” value [5] was “absence of iC3b”.
For `O=C(O)CN(CCOCCOCCN(CC(=O)O)CC(=O)O)CC(=O)O` [EGTA], the “Rescue of binding to cells in HI serum by PGG β-glucan pre-opsonized in treated serum” value [6] was “rescue of binding was diminished”, the “Rescue of binding to cells in HI serum by PGG β-glucan pre-opsonized in treated serum” value [7] was “rescue of binding was diminished” and the “Effect of serum treatment on iC3b deposition on immobilized β-glucan” value [4] was “completely inhibited”. For the same compound, the “Effect on CVF-activated alternative pathway (sC5b-9 formation)” value [8] was “completely blocked both the classical and alternative pathways to background levels” and the “Effect on SRBC-activated classical pathway (sC5b-9 formation)” value [8] was “completely blocked both the classical and alternative pathways to background levels”.
In the case of “control peptide: control peptide IAVVQDWGHHRAT (SEQ ID NO:2) (control polypeptide)”, the “Effect of the agent added” value [1] is reported as “no effect on binding” and the “Effect of the agent added” value [2] is reported as “no effect on binding”.
`CN` [methylamine] was tested, and the “Effect of the agent added” value [1] was “abrogated the ability of PGG β-glucan to bind to cells”, the “Effect of the agent added” value [2] was “abrogated the ability of PGG β-glucan to bind to cells” and the “Effect of serum treatment on iC3b deposition on immobilized β-glucan” value [4] was “complete inhibition of iC3b deposition”.
